{"source": "paper PMC7017153", "about": "“Assembly of a G-Quadruplex Repair Complex by the FANCJ DNA Helicase and the REV1 Polymerase” (Genes, 2019)", "key": {"[1]": {"system": "(TTAGGG)4 human telomeric G4 DNA", "assay": "Fluorescence spectroscopy, FANCJ AKKQ binding to (TTAGGG)4", "conditions": "tryptophan fluorescence quenching, peptide 5 µM, excitation 280 nm, 300-450 nm; Buffer H (20 mM HEPES pH 7.5, 150 mM KCl, 5 mM TCEP, 5% (v/v) glycerol), 25 °C; 1:1 model; average and 95% confidence interval, n = 3", "method": "(§1) Equilibrium binding experiments were performed on a Cary Eclipse Fluorescence Spectrophotometer (Agilent Technologies, Santa Clara, CA, USA). Samples were maintained at 25 °C with a PCB 1500 water peltier system (Agilent). FANCJ peptide (5 µM) was placed in a microcuvette. Fluorescence spectra were collected from 300 nm to 450 nm (λexcitation = 280 nm) with slit widths set to 5 nm. A scan of Buffer H was used as a baseline. DNA substrate was titrated into the cuvette, and each mixture was equilibrated for 3 min prior to data collection. The extent of fluorescence quenching observed (ΔFobs) was calculated using the following equation, where F0 was the total fluorescence signal from the FANCJ peptide alone, and Fi was the total fluorescence intensity upon the ith addition of DNA:(1) ΔFobs=F0−Fi/F0\n(§2) Binding isotherms were generated by plotting ΔFobs versus the total DNA concentration after correcting for sample dilution. The resulting curves were fit to a 1:1 interaction model using Scientist 3.0 software (Micromath, St. Louis, MO, USA) based on the following formulas, where A was the amplitude of fluorescence quenching and K was the equilibrium association constant. […] Fluorescence titrations were performed in triplicate. The reported values were determined from the average and 95% confidence interval of the three independent data-sets. […]"}, "(TTAGGG)4 8oxo1": {"system": "(TTAGGG)4 8oxo1", "assay": "Fluorescence spectroscopy, FANCJ AKKQ binding to (TTAGGG)4 8oxo1", "set-up": "species or system human", "conditions": "tryptophan fluorescence quenching, peptide 5 µM, excitation 280 nm; Buffer H (pH 7.5, 150 mM KCl), 25 °C; 1:1 model; 8oxoG at first guanine; average and 95% confidence interval, n = 3", "method": "as §1, §2"}, "(TTAGGG)4 8oxo5": {"system": "(TTAGGG)4 8oxo5", "assay": "Fluorescence spectroscopy, FANCJ AKKQ binding to (TTAGGG)4 8oxo5", "set-up": "species or system human", "conditions": "tryptophan fluorescence quenching, peptide 5 µM, excitation 280 nm; Buffer H (pH 7.5, 150 mM KCl), 25 °C; 1:1 model; 8oxoG at fifth guanine; average and 95% confidence interval, n = 3", "method": "as §1, §2"}, "(GGGT)4": {"system": "(GGGT)4", "assay": "Fluorescence spectroscopy, FANCJ AKKQ binding to (GGGT)4", "conditions": "tryptophan fluorescence quenching, peptide 5 µM, excitation 280 nm; Buffer H (pH 7.5, 150 mM KCl), 25 °C; 1:1 model; average and 95% confidence interval, n = 3", "method": "as §1, §2"}, "(GGGT)4 8oxo1": {"system": "(GGGT)4 8oxo1", "assay": "Fluorescence spectroscopy, FANCJ AKKQ binding to (GGGT)4 8oxo1", "method": "as §1, §2"}, "(GGGT)4 8oxo5": {"system": "(GGGT)4 8oxo5", "assay": "Fluorescence spectroscopy, FANCJ AKKQ binding to (GGGT)4 8oxo5", "conditions": "tryptophan fluorescence quenching, peptide 5 µM, excitation 280 nm; Buffer H (pH 7.5, 150 mM KCl), 25 °C; 1:1 model; 8oxoG at fifth guanine; average and 95% confidence interval, n = 3", "method": "as §1, §2"}, "bioPEG12-(TTAGGG)4": {"system": "bioPEG12-(TTAGGG)4", "assay": "Biolayer interferometry (BLI), AKKQ binding to bioPEG12-(TTAGGG)4", "set-up": "species or system human", "method": "(§3) BLI assays were performed on a BLItz instrument (Pall Fortébio, Fremont, CA, USA). Streptavidin-coated biosensors were purchased from Pall Fortébio (Lot 1906281). Biosensors were hydrated in Buffer H for 10 min, and the baseline optical interference was recorded. A total of 150 nM of biotinylated G4 DNA or FANCJ PIP peptide was loaded onto the sensors over 2 min, after which they were washed with Buffer H. Binding reactions were initiated by placing the biosensors in analyte solutions at the indicated concentrations. After their interactions had reached an equilibrium, the sensors were returned to buffer to monitor dissociation of the complexes. Experiments were repeated in triplicate. BLI binding isotherms were generated by plotting the plateau values of the association phase versus total analyte concentration. These curves were fit to a 1:1 interaction model, as described above. The parameters reported were obtained from the average and 95% confidence interval of the three data sets.\n(§4) We next validated our fluorescence spectroscopy results by biolayer interferometry (BLI). This technique measures the optical thickness of a biosensor surface, which can be used to examine the association and dissociation reactions of macromolecules. […] The optical interference pattern of the sensor alone was measured in Buffer H as an initial baseline (phase 1). […]"}, "bioPEG12-(TTAGGG)4-8oxo1": {"system": "bioPEG12-(TTAGGG)4-8oxo1", "assay": "Biolayer interferometry (BLI), AKKQ binding to bioPEG12-(TTAGGG)4-8oxo1", "set-up": "species or system human", "conditions": "150 nM biotinylated G4 DNA loaded on streptavidin biosensor, peptide 32-0.5 µM, Buffer H (pH 7.5, 150 mM KCl), 25 °C, plateau Δλ, 1:1 model, average and 95% confidence interval, n = 3", "method": "as §3, §4"}, "bioPEG12-(TTAGGG)4-8oxo5": {"system": "bioPEG12-(TTAGGG)4-8oxo5", "assay": "Biolayer interferometry (BLI), AKKQ binding to bioPEG12-(TTAGGG)4-8oxo5", "set-up": "species or system human", "conditions": "150 nM biotinylated G4 DNA loaded on streptavidin biosensor, peptide 32-0.5 µM, Buffer H (pH 7.5, 150 mM KCl), 25 °C, plateau Δλ, 1:1 model, average and 95% confidence interval, n = 3", "method": "as §3, §4"}}}
{"sequence": "SPEKTTLAAKLSAKKQASIW [FANCJ AKKQ]", "values": [{"measurement": "K (equilibrium association constant)", "setting": "[1]", "result": "1.6 ± 0.7 × 10^6 M^−1"}, {"measurement": "K8oxo1 (equilibrium association constant)", "setting": "(TTAGGG)4 8oxo1", "result": "1.3 ± 0.4 × 10^6 M^−1"}, {"measurement": "K8oxo5 (equilibrium association constant)", "setting": "(TTAGGG)4 8oxo5", "result": "1.4 ± 0.5 × 10^6 M^−1"}, {"measurement": "K (equilibrium association constant)", "setting": "(GGGT)4", "result": "2.7 ± 0.4 × 10^5 M^−1"}, {"measurement": "Increase of equilibrium constant by oxidative damage", "setting": "(GGGT)4 8oxo1; (GGGT)4 8oxo1 and 8oxo5 relative to (GGGT)4, fluorescence", "result": "1.5-3 fold"}, {"measurement": "K8oxo1 (equilibrium association constant)", "setting": "(GGGT)4 8oxo1; tryptophan fluorescence quenching, peptide 5 µM, excitation 280 nm, Buffer H (pH 7.5, 150 mM KCl), 25 °C, 1:1 model, 8oxoG at first guanine, average and 95% confidence interval, n = 3", "result": "7.7 ± 0.7 × 10^5 M^−1"}, {"measurement": "K8oxo5 (equilibrium association constant)", "setting": "(GGGT)4 8oxo5", "result": "4.4 ± 0.6 × 10^5 M^−1"}, {"measurement": "K (equilibrium constant)", "setting": "bioPEG12-(TTAGGG)4; BLI, 150 nM biotinylated G4 DNA loaded on streptavidin biosensor, peptide 64-0.5 µM, Buffer H (pH 7.5, 150 mM KCl), 25 °C, plateau Δλ, 1:1 model, average and 95% confidence interval, n = 3", "result": "9.4 ± 1.1 × 10^4 M^−1"}, {"measurement": "BLI binding constants compared to the fluorescence measurements", "setting": "bioPEG12-(TTAGGG)4; human telomeric G4, native, 8oxo1 and 8oxo5", "result": "about one order of magnitude weaker compared to the fluorescence measurements"}, {"measurement": "K8oxo1 (equilibrium constant)", "setting": "bioPEG12-(TTAGGG)4-8oxo1", "result": "2.3 ± 0.8 × 10^5 M^−1"}, {"measurement": "K8oxo5 (equilibrium constant)", "setting": "bioPEG12-(TTAGGG)4-8oxo5", "result": "1.8 ± 0.2 × 10^5 M^−1"}]}
